These results are taken from patent US20100297688A1, “METHOD FOR DIAGNOSING OR PREDICTING SHORT STATURE IN HUMANS” (priority 2009, published 2010).

For test [1] the following is noted: adult dogs, after treatment with GH for 3 months, histomorphometry; cited from earlier work.
For another test, the system named is GH secretion. The test is described as follows: GHRH test (GH stimulation test) in children with short stature. In kind it is in vivo, human. The following applies: GHRH 1 μg/kg IV at 0 min; GH peaks induced consistently in the first 30 min. How it is done: Patients. A GHRH test was conducted after overnight fasting, modified with samples that were obtained at 3, 5, and 10 minutes in addition to routine protocol collection of samples at 30 minutes, 60 minutes, 90 minutes and 120 minutes following GHRH injection (GHRH1-29: GEREF, SERONO, Italy; 1 μg/kg IV at 0 min). A total of 19 children (8.6±3.2, range from 2.5 yrs to 14 yrs, 5 girls) who suffered SS (short stature) (Ht−2.5±0.6 SDS) were administered GHRH 1 μg/kg IV at 0 min and blood samples were obtained at 0, 3, 5, 10, 30, 60, 90 and 120 min. GH was determined in all samples.
Blood sample processing. GH and IGF-1 were analyzed at Esoterix (Texas, U.S.). IGF1 was measured by radioimmunoassay after acid-ethanol extraction and with IGF2 blocking. A 100 uL of sample was initially used for the procedure. Growth hormone was tested by ICMA, requires min amount of 0.2 ml of serum, preparation include 1 mL serum, separate within one hour that was shipped frozen in plastic vial (http://www.esoterix.com/prodserv/test_menu!)
AUC measurements for GH were calculated according trapezoid rule (Tai MM 1994 A mathematical model for the determination of total area under glucose tolerance and other metabolic curves. Diabetes Care 17:p 152-4).

No end group written: not given here. Some results are limits rather than exact numbers.

Regarding Growth hormone [GH], in test [1], the “increase in cortical bone mass” value is 2%.

“Growth hormone releasing hormone (YADAIFTNSYRKVLGQLSARKLLQDIMSR; ends and bridges not checked; UniProt P01286 32-60, looked up, fragment) [GHRH, GHRH1-29: GEREF, SERONO, Italy; stimulator of GH secretion]”: the “time of GH peak after GHRH” value in the test with GH secretion is given as ≤ 30 min.
